What was measured:
[1] = Inhibitory concentration against Con A stimulated thymocytes; format: functional
[2] = inhibitory concentration against Con A stimulated thymocytes; format: functional

| IC50 [1] | IC50 [2] | Compound |
| --- | --- | --- |
|  | 8 µM | CC[C@@H]1NC(=O)[C@H]([C@@H](C)O)N(C)C(=O)[C@H](C(C)C)N(C)C(=O)[C@H](CC(C)C)N(C)C(=O)[C@H](CC(C)C)N(C)C(=O)[C@@H](C)NC(=O)[C@H](C)NC(=O)[C@H](CC(C)C)N(C)C(=O)[C@H](C(C)C)NC(=O)[C@H](CC(C)C)N(C)C(=O)CN(C)C1=O |
| 15000 nM |  | CC[C@@H]1NC(=O)[C@H](CC)N(C)C(=O)[C@H](C(C)C)N(C)C(=O)[C@H](CC(C)C)N(C)C(=O)[C@H](CC(C)C)N(C)C(=O)[C@@H](C)NC(=O)[C@H](C)NC(=O)[C@H](CC(C)C)N(C)C(=O)[C@H](C(C)C)NC(=O)[C@H](CC(C)C)N(C)C(=O)CN(C)C1=O |
| 600 nM |  | CC[C@@H]1NC(=O)[C@H]([C@H](O)C(C)C)N(C)C(=O)[C@H](C(C)C)N(C)C(=O)[C@H](CC(C)C)N(C)C(=O)[C@H](CC(C)C)N(C)C(=O)[C@@H](C)NC(=O)[C@H](C)NC(=O)[C@H](CC(C)C)N(C)C(=O)[C@H](C(C)C)NC(=O)[C@H](CC(C)C)N(C)C(=O)CN(C)C1=O |

| Compound | IC50 [1] | IC50 [2] |
| --- | --- | --- |
| CCCCC(C)[C@@H](O)[C@H]1C(=O)N[C@@H](CC)C(=O)N(C)CC(=O)N(C)[C@@H](CC(C)C)C(=O)N[C@@H](C(C)C)C(=O)N(C)[C@@H](CC(C)C)C(=O)N[C@@H](C)C(=O)N[C@H](C)C(=O)N(C)[C@@H](CC(C)C)C(=O)N(C)[C@@H](CC(C)C)C(=O)N(C)[C@@H](C(C)C)C(=O)N1C (some centres undefined) | 10 nM |  |
